# Experimental data: patent US12275729B2 (Merck Sharp & Dohme LLC, priority 2017, dated 2025)
# Columns and labels:
# IDO1 [1] = molecular target: T1, IDO1 (Homo sapiens, UniProt P14902); assay: IDO1 Cellular Assay in HeLa Cells Stimulated with IFNγ; format: cell-based
# IDO1 [2] = molecular target: T1, IDO1; assay: IDO1 Human Whole Blood Assay; format: cell-based; set-up: Human whole blood was drawn in sodium heparin coated tubes from healthy internal donors; from tissue; host or cells: human whole blood from healthy donors, stimulated with LPS and IFNγ; details: LPS and IFNγ stimulated
# [3] = about 48 hours, read-out: Hela IC50
# T1 sequence (P14902 whole entry): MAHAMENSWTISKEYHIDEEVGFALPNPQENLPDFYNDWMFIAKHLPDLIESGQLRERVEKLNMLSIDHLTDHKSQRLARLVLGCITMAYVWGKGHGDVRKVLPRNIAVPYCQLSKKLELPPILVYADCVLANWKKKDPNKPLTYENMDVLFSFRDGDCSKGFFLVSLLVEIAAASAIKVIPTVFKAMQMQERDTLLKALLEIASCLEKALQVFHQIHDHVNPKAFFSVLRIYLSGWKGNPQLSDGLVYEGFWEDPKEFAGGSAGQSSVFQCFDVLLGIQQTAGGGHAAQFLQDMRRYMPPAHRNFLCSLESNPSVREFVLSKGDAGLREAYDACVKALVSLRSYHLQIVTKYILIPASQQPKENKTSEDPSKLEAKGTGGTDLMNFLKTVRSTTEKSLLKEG
IC50 (IDO1 [1]; [3]) [µM],IC50 (IDO1 [2]) [µM],IC50 (IDO1 [1]; read-out: Hela IC50) [µM],"IC50 (IDO1 [1]; value in running text, read-out: Hela Cell IC50) [µM]",Compound
0.0049,0.019,,,"N#Cc1cccc(C(=O)N2CCCc3nc(C4(NC(=O)c5ccc(F)cc5)CC4)ccc32)c1 [Example 175, N-{1-[5-(3-cyanobenzene-1-carbonyl)-5,6,7,8-tetrahydro-1,5-naphthyridin-2-yl]cyclopropyl}-4-fluorobenzamide]"
0.0022,0.045,,,"C[C@@H](C(=O)Nc1ccc(F)cc1)c1ccc2c(c1)CCCN2C(=O)c1cccc(Cl)c1 (single isomer, unassigned) [Example 53]"
0.00089,0.063,,,"O=C(NC1(c2ccc3c(n2)CCCN3c2ccnc(C3CC3)n2)CC1)c1ccc(F)cc1 [Example 307, 5-(2-cyclopropylpyrimidin-4-yl)-2-(1-(4-fluorobenzamido)cyclopropyl)-5,6,7,8-tetrahydro-1,5-naphthyridin-1-ium 2,2,2-trifluoroacetate]"
0.0079,0.325,,,"O=C(C1CC1)N1CCc2nc(C3(C(=O)Nc4ccc(F)cc4)CCC3)ccc21 [Example 268, 1-[1-(cyclopropanecarbonyl)-2,3-dihydro-1H-pyrrolo[3,2-b]pyridin-5-yl]-N-(4-fluorophenyl)cyclobutane-1-carboxamide]"
0.0017,0.026,,,"CC(NC(=O)c1ccc(F)cc1)c1ccc2c(n1)CCCN2C(=O)c1ccccc1Cl (stereo not drawn) [Example 141, N-{1-[5-(2-chlorobenzene-1-carbonyl)-5,6,7,8-tetrahydro-1,5-naphthyridin-2-yl]ethyl}-4-fluorobenzamide]"
,0.058,0.453,,"CC(NC(=O)c1ccc(F)cc1)c1ccc2c(n1)CCCN2C(=O)OCCCc1ccncc1 (stereo not drawn) [Example 322, 3-(pyridin-4-yl)propyl 6-(1-(4-fluorobenzamido)ethyl)-3,4-dihydro-1,5-naphthyridine-1(2H)-carboxylate]"
,0.004,,0.0033,"Cc1nccc(N2CCCCc3nc(C4(NC(=O)c5ccc(F)cc5)CC4)ccc32)n1 [Example 432, 4-fluoro-N-(1-(5-(2-methylpyrimidin-4-yl)-6,7,8,9-tetrahydro-5H-pyrido[3,2-b]azepin-2-yl)cyclopropyl)benzamide]"
0.00279,0.081,,,"Cc1nccc(N2CCCc3nc(C4(NC(=O)c5ccc(F)c(Br)c5)CC4)ccc32)n1 [Example 304, 3-bromo-4-fluoro-N-(1-(5-(2-methylpyrimidin-4-yl)-5,6,7,8-tetrahydro-1,5-naphthyridin-2-yl)cyclopropyl)benzamide]"
,0.018,0.00319,,"Cc1nccc(N2CCCc3nc(C4(C(=O)Nc5ccc(F)cc5)CC5(CC5)C4)ccc32)n1 [Example 415, 2-(5-((4-fluorophenyl)carbamoyl)spiro [2.3]hexan-5-yl)-5-(2-methylpyrimidin-4-yl)-5,6,7,8-tetrahydro-1,5-naphthyridin-1-ium 2,2,2-trifluoroacetate]"

# Further lines, the molecule ahead of its results:
Compound,IC50 (IDO1 [1]; [3]) [µM],IC50 (IDO1 [2]) [µM],IC50 (IDO1 [1]; read-out: Hela IC50) [µM],"IC50 (IDO1 [1]; value in running text, read-out: Hela Cell IC50) [µM]"
"O=C([C@@H]1CCCCO1)N1CCCc2cc(C3(C(=O)Nc4ccc(F)cc4)CCC3)ccc21 (single isomer, unassigned) [Example 105]",0.0019,0.061,,
"CC(C(=O)Nc1ccc(F)cc1)c1ccc2c(c1)CCCN2C(=O)c1cc(C(F)F)ccn1 (stereo not drawn) [Example 38, 2-{1-[4-(difluoromethyl)pyridine-2-carbonyl]-1,2,3,4-tetrahydroquinolin-6-yl}-N-(4-fluorophenyl)propanamide]",0.0057,0.036,,
"CCN(CC)CCOC(=O)N1CCCc2nc(C(C)NC(=O)c3ccc(F)cc3)ccc21 (stereo not drawn) [Example 324, 2-(diethylamino)ethyl 6-(1-(4-fluorobenzamido)ethyl)-3,4-dihydro-1,5-naphthyridine-1(2H)-carboxylate]",,0.239,3.4,
"O=C(Nc1ccc(Cl)cc1)C1(c2ccc3c(n2)CCN3c2ccccn2)CCC1 [Example 272, N-(4-chlorophenyl)-1-[1-(pyridin-2-yl)-2,3-dihydro-1H-pyrrolo[3,2-b]pyridin-5-yl]cyclobutane-1-carboxamide]",0.0019,0.336,,
CC(NC(=O)c1ccc(F)cc1)c1ccc2c(n1)CCCN2C(=O)OC(C)(C)C(F)(F)F (stereo not drawn) [Example 312],,0.047,0.00987,
"O=C(Nc1ccc(Cl)cc1)C1(c2ccc3c(n2)CCCN3c2cccc(C3CC3)n2)CCC1 [Example 408, N-(4-chlorophenyl)-1-(5-(6-cyclopropylpyridin-2-yl)-5,6,7,8-tetrahydro-1,5-naphthyridin-2-yl)cyclobutane-1-carboxamide]",0.0115,2.98,,
"CC(NC(=O)c1ccc(F)cc1)c1ccc2c(c1)CCCN2C(CO)c1cccc(Cl)c1 (single isomer, unassigned) [Example 92]",0.006,0.378,,
"Cc1nccc(N2CCCc3nc(C(C)NC(=O)c4ccc(Cl)cc4)ccc32)n1 (stereo not drawn) [Example 250, 4-chloro-N-(1-(5-(2-methylpyrimidin-4-yl)-5,6,7,8-tetrahydro-1,5-naphthyridin-2-yl)ethyl)benzamide]",0.002,0.032,,
"CC(C(=O)Nc1ccc(F)cc1)c1ccc2c(n1)CCCN2c1ccnc(C2CC2)n1 (stereo not drawn) [Example 366, 2-(5-(2-cyclopropylpyrimidin-4-yl)-5,6,7,8-tetrahydro-1,5-naphthyridin-2-yl)-N-(4-fluorophenyl)propanamide]",,0.14,0.00382,
